According to ChEMBL document CHEMBL4732083, “Synthesis and anti-inflammatory activity of saponin derivatives of δ-oleanolic acid” (Eur J Med Chem, 2021):
Calls of active or inactive are those of the source. No cut-off for these calls is given here.

Key:
[1] = AUC (0 to infinity) in BALB/c mouse at 2 mg/kg, iv by LC/MS-MS analysis; assay type: ADME, organism-based; parameters: route intravenous, time infinity, dose 2 mg/kg; conditions: in vivo
[2] = tested on: Mus musculus; experiment: Hepatoprotective activity in LPS/D-GalN-induced fulminant hepatic failure BALB/c mouse model assessed as changes in liver histology at 200 mg/kg, IG once daily for 3 days by H/E staining based analysis; assay type: functional, organism-based; conditions: time 3.0 day
[3] = Cmax in BALB/c mouse at 2 mg/kg, iv by LC/MS-MS analysis; assay type: ADME, organism-based; parameters: route intravenous, dose 2 mg/kg; conditions: in vivo
[4] = Metabolic stability in mouse liver microsomes assessed as half life in presence of NADPH by LC-MS analysis; assay type: ADME, Microsome
[5] = Half life in BALB/c mouse at 2 mg/kg, iv by LC/MS-MS analysis; assay type: ADME, organism-based; conditions: in vivo
[6] = tested on: Mus musculus; experiment: Antiinflammatory activity against LPS/D-GalN-induced fulminant hepatic failure BALB/c mouse model assessed as inhibition of IL-6 mRNA expression in liver at 200 mg/kg, IG once daily for 3 days by RT-PCR analysis; assay type: functional, organism-based; conditions: time 3.0 day
[7] = Bioavailability in BALB/c mouse at 10 mg/kg, po by LC/MS-MS analysis; assay type: ADME, organism-based; conditions: in vivo
[8] = Tmax in BALB/c mouse at 10 mg/kg, po by LC/MS-MS analysis; assay type: ADME, organism-based; conditions: in vivo
[9] = Half life in BALB/c mouse at 10 mg/kg, po by LC/MS-MS analysis; assay type: ADME, organism-based; conditions: in vivo
[10] = organism: Homo sapiens; experiment: Effect on recombinant AMPKalpha1beta1gamma1 (unknown origin) phosphorylation
[11] = tested on: THP-1; experiment: Antiinflammatory activity in human THP-1 cells assessed as reduction in LPS-induced IL6 secretion at 10 uM incubated for 12 hrs measured by ELISA; assay type: functional, cell-based
[12] = tested on: Mus musculus; experiment: Antiinflammatory activity against LPS/D-GalN-induced fulminant hepatic failure BALB/c mouse model assessed as inhibition of TNFalpha mRNA expression in liver at 200 mg/kg, IG once daily for 3 days by RT-PCR analysis; assay type: functional, organism-based; conditions: time 3.0 day
[13] = organism: Homo sapiens; experiment: Effect on recombinant AMPK alpha2beta2gamma1 (unknown origin) phosphorylation
[14] = AUC (0 to infinity) in BALB/c mouse at 10 mg/kg, po by LC/MS-MS analysis; assay type: ADME, organism-based; parameters: route oral, time infinity, dose 10 mg/kg; conditions: in vivo
[15] = Cmax in BALB/c mouse at 10 mg/kg, po by LC/MS-MS analysis; assay type: ADME, organism-based; parameters: route oral, dose 10 mg/kg; conditions: in vivo
[16] = Metabolic stability in human liver microsomes assessed as half life in presence of NADPH by LC-MS analysis; assay type: ADME, Microsome
[17] = Tmax in BALB/c mouse at 2 mg/kg, iv by LC/MS-MS analysis; assay type: ADME, organism-based; conditions: in vivo
[18] = AUC (0 to t) in BALB/c mouse at 2 mg/kg, iv by LC/MS-MS analysis; assay type: ADME, organism-based; parameters: dose 2 mg/kg; conditions: in vivo
[19] = tested on: THP-1; experiment: Antiinflammatory activity in human THP-1 cells assessed as reduction in LPS-induced TNF alpha secretion at 10 uM incubated for 12 hrs measured by ELISA; assay type: functional, cell-based
[20] = tested on: Mus musculus; experiment: Hepatoprotective activity in LPS/D-GalN-induced fulminant hepatic failure BALB/c mouse model assessed as inhibition of serum ALT level at 200 mg/kg, IG once daily for 3 days; assay type: functional, organism-based; conditions: time 3.0 day
[21] = tested on: Mus musculus; experiment: Hepatoprotective activity in LPS/D-GalN-induced fulminant hepatic failure BALB/c mouse model assessed as inhibition of serum AST level at 200 mg/kg, IG once daily for 3 days; assay type: functional, organism-based; conditions: time 3.0 day
[22] = tested on: THP-1; experiment: Cytotoxicity against human THP-1 cells assessed as reduction in cell viability at 1 to 10 uM; assay type: cell-based; conditions: thp-1, 10 µM
[23] = AUC (0 to t) in BALB/c mouse at 10 mg/kg, po by LC/MS-MS analysis; assay type: ADME, organism-based; parameters: dose 10 mg/kg; conditions: in vivo

## CC1(C)CC[C@]2(C(=O)O)CC[C@]3(C)C(=C2C1)CC[C@@H]1[C@@]2(C)CC[C@H](O[C@@H]4OC[C@H](O)[C@H](O)[C@H]4O)C(C)(C)[C@@H]2CC[C@]13C
[1]
  AUC(0-inf): 1360 ng·h/mL
[2]
  Activity: Active
[3]
  Cmax: 4410 ng/mL
[4]
  half-life: > 120 min
[5]
  half-life: 21 min
[6]
  Activity: Active
[7]
  bioavailability: 24.7%
[8]
  Tmax: 25.2 min
[9]
  half-life: 21 min
[10]
  Activity: inactive
[11]
  Activity: Active
[12]
  Activity: Active
[13]
  Activity: inactive
[14]
  AUC(0-inf): 1690 ng·h/mL
[15]
  Cmax: 1840 ng/mL
[16]
  half-life: > 120 min
[17]
  Tmax: 4.8 min
[18]
  AUC(0-t): 1350 ng·h/mL
[19]
  Activity: Active
[20]
  Activity: Active
[21]
  Activity: Active
[22]
  Activity: Non-Toxic
[23]
  AUC(0-t): 1670 ng·h/mL
